Measurements: US6461997B1, “Triazole sulfones having herbicidal activity” (Monsanto Technology LLC, priority 1999, dated 2002)

Tests used:
AMARE (redroot pigweed) = experiment: Pre-emergence herbicidal activity, warm season; type: in vivo, Amaranthus retroflexus; details: for Pre-emergence activity (GR80) AMARE: GR80 = lowest tested rate (300, 100, 30, 10 g/ha) with 80% or greater inhibition, approx. 14 days after treating, 30/21° C.
Summary of the method: (§1)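 GR80 values derive from percent inhibition relative to untreated plants, read roughly 14 days after sowing and pre-emergence soil-surface treatment (compound in 50:50 acetone/water; rates typically 10, 30, 100, 300 g/ha). Warm-season weeds grew at 30/21° C day/night, cool-season ones at 18/13° C; an asterisk marks activity without reaching 80% at the highest rate.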

POROL (common purslane) = experiment: Pre-emergence herbicidal activity, warm season; type: in vivo, Portulaca oleracea; details: GR80 = lowest tested rate (300, 100, 30, 10 g/ha) with 80% or greater inhibition; approx. 14 days after treating; 30/21° C.
Summary of the method: as §1

[1] = test system: PANMI (wild proso millet); experiment: Pre-emergence herbicidal activity, warm season; type: in vivo, Panicum miliaceum; details: for Pre-emergence activity (GR80) PANMI: GR80 = lowest tested rate (300, 100, 30, 10 g/ha) with 80% or greater inhibition, approx. 14 days after treating, 30/21° C.
Summary of the method: (§2)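 Under 18/13 °C (ALOMY, POLCO) or 30/21 °C (PANMI, DIGSA) day/night, pre-emergence soil-surface treatments at 300, 100, 30 and 10 g/ha were evaluated after roughly 14 days. GR80 reflects percent inhibition relative to untreated plants.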

[2] = test system: BRAPP (broadleaf signalgrass); experiment: Pre-emergence herbicidal activity, warm season; type: in vivo, Brachiaria platyphylla; details: for Pre-emergence activity (GR80) BRAPP: GR80 = lowest tested rate (300, 100, 30, 10 g/ha) with 80% or greater inhibition, approx. 14 days after treating, 30/21° C.
Summary of the method: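 Activity is expressed as the rate giving 80% inhibition, with 300, 100, 30 and 10 g/ha typically tested. An asterisk marks activity short of 80% at the top rate. Warm-season grasses were held at 30/21 °C; cool-season blackgrass and wild buckwheat at 18/13 °C; scoring at about 14 days.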

DIGSA (large crabgrass) [3] = experiment: Pre-emergence herbicidal activity, warm season; type: in vivo, Digitaria sanguinalis; details: for Pre-emergence activity (GR80) DIGSA: GR80 = lowest tested rate (300, 100, 30, 10 g/ha) with 80% or greater inhibition, approx. 14 days after treating, 30/21° C.
Summary of the method: as §2

DIGSA (large crabgrass) [4] = experiment: Pre-plant incorporated (PPI) herbicidal activity, warm season; type: in vivo, Digitaria sanguinalis
Procedure: (§3) In another set of tests, the pre-plant incorporated (PPI) activity of compounds of this invention was evaluated on the same species as for the pre-emergence tests described above. In the PPI tests the following procedure, designed to simulate PPI application, was used.
(§4) A pre-prepared topsoil mixture (described above) was placed in a pot and compacted to a depth of 1.0 to 1.25 cm from the top of the pot. Seeds of each of several monocotyledonous and dicotyledonous annual plant species were placed on top of the soil. A sufficient quantity of soil to cover the seeds and level fill the pot was weighed into an open container. A known amount of the test compound was dissolved or suspended in an organic solvent and applied by spraying to this cover soil. The cover soil was thoroughly mixed to distribute the test compound throughout the cover soil, and was then applied as a cover layer over the seeds. Untreated soil was used as a cover layer for control pots. After treatment the plants were placed in a greenhouse where they received 0.64 cm of overhead irrigation. All subsequent watering consisted of a light overhead mist and/or subirrigation as needed for germination and growth. Tables 9 and 10 below relate to warm season plant species which were placed after pre-emergence treatment in a greenhouse with a 30/21° C. day/night temperature regime. Tables 11 and 12 below relates to cool season plant species placed after pre-emergence treatment in a greenhouse or growth chamber with an 18/13° C. day/night temperature regime. Only the compounds of Examples 1, 6, 8, 11, 13 and 15-20 were included in PPI tests.
(§5) Approximately 14 days after planting and treating, the plants were observed and herbicidal efficacy recorded as percent inhibition by comparison with untreated plants.

[5] = test system: GALAP (catchweed bedstraw); experiment: Pre-plant incorporated (PPI) herbicidal activity, cool season; type: in vivo, Galium aparine; details: pre-plant incorporated; lowest tested rate with 80% or greater inhibition; about 14 days
Procedure: as §3, §4, §5

LOLMG (annual ryegrass) = experiment: as above; type: in vivo, Lolium multiflorum; details: pre-plant incorporated; lowest tested rate with 80% or greater inhibition; about 14 days
Procedure: as §3, §4, §5

[6] = test system: AEGCY (jointed goatgrass); experiment: as above; type: in vivo, Aegilops cylindrica; details: pre-plant incorporated; lowest tested rate with 80% or greater inhibition; about 14 days
Procedure: as §3, §4, §5

[7] = test system: AGRRE (quackgrass (seedling)); experiment: as above; type: in vivo, Elymus repens; details: pre-plant incorporated; lowest tested rate with 80% or greater inhibition; about 14 days
Procedure: as §3, §4, §5

SETVI (green foxtail) = experiment: Pre-emergence herbicidal activity, cool season; type: in vivo, Setaria viridis; details: GR80 = lowest tested rate (300, 100, 30, 10 g/ha) with 80% or greater inhibition; approx. 14 days after treating; 18/13° C.
Summary of the method: as §1

[8] = test system: AGSST (creeping bentgrass); experiment: Pre-emergence herbicidal activity, cool season; type: in vivo, Agrostis stolonifera; details: GR80 = lowest tested rate (300, 100, 30, 10 g/ha) with 80% or greater inhibition; approx. 14 days after treating; 18/13° C.
Summary of the method: as §1

Work on CCN(CC)C(=O)n1cnc(S(=O)(=O)C(F)F)n1 [Example 15, 1-(N,N-diethylcarbamoyl)-3-(difluoromethylsulfonyl)-1,2,4-triazole] yielded an inhibition at 10 g/ha (AMARE (redroot pigweed); Amaranthus retroflexus, pre-emergence application, 10 g/ha, read-out: Percent inhibition, weed AMARE) of 0%, an inhibition at 30 g/ha (AMARE (redroot pigweed); Amaranthus retroflexus, pre-emergence application, 30 g/ha, read-out: Percent inhibition, weed AMARE) of 0% and an inhibition at 100 g/ha (AMARE (redroot pigweed); Amaranthus retroflexus, pre-emergence application, 100 g/ha, read-out: Percent inhibition, weed AMARE) of 0%. The inhibition at 300 g/ha (AMARE (redroot pigweed); Amaranthus retroflexus, pre-emergence application, 300 g/ha, read-out: Percent inhibition, weed AMARE) was 40%, the inhibition at 900 g/ha (AMARE (redroot pigweed); Amaranthus retroflexus, pre-emergence application, 900 g/ha, read-out: Percent inhibition, weed AMARE) was 95% and the “Pre-emergence activity (GR80) AMARE” value (AMARE (redroot pigweed)) was 30 g/ha. For the same compound, the “Pre-emergence activity (GR80) POROL” value (POROL (common purslane)) was 100 g/ha, the “Pre-emergence activity (GR80) PANMI” value [1] was 30 g/ha and the inhibition at 10 g/ha ([1]; Panicum miliaceum, pre-emergence application, 10 g/ha, read-out: Percent inhibition, weed PANMI) was 0%. The inhibition at 30 g/ha ([1]; Panicum miliaceum, pre-emergence application, 30 g/ha, read-out: Percent inhibition, weed PANMI) was 0%, the inhibition at 100 g/ha ([1]; Panicum miliaceum, pre-emergence application, 100 g/ha, read-out: Percent inhibition, weed PANMI) was 20% and the inhibition at 300 g/ha ([1]; Panicum miliaceum, pre-emergence application, 300 g/ha, read-out: Percent inhibition, weed PANMI) was 40%. The inhibition at 900 g/ha ([1]; Panicum miliaceum, pre-emergence application, 900 g/ha, read-out: Percent inhibition, weed PANMI) was 99%, the “Pre-emergence activity (GR80) BRAPP” value [2] was 300 g/ha and the inhibition at 10 g/ha ([2]; Urochloa platyphylla, pre-emergence application, 10 g/ha, read-out: Percent inhibition, weed BRAPP) was 0%. The inhibition at 30 g/ha ([2]; Urochloa platyphylla, pre-emergence application, 30 g/ha, read-out: Percent inhibition, weed BRAPP) was 0%, the inhibition at 100 g/ha ([2]; Urochloa platyphylla, pre-emergence application, 100 g/ha, read-out: Percent inhibition, weed BRAPP) was 40% and the inhibition at 300 g/ha ([2]; Urochloa platyphylla, pre-emergence application, 300 g/ha, read-out: Percent inhibition, weed BRAPP) was 50%. The inhibition at 900 g/ha ([2]; Urochloa platyphylla, pre-emergence application, 900 g/ha, read-out: Percent inhibition, weed BRAPP) was 85%, the inhibition at 10 g/ha (DIGSA (large crabgrass) [3]; Digitaria sanguinalis, pre-emergence application, 10 g/ha, read-out: Percent inhibition, weed DIGSA) was 70% and the inhibition at 30 g/ha (DIGSA (large crabgrass) [3]; Digitaria sanguinalis, pre-emergence application, 30 g/ha, read-out: Percent inhibition, weed DIGSA) was 40%. The inhibition at 100 g/ha (DIGSA (large crabgrass) [3]; Digitaria sanguinalis, pre-emergence application, 100 g/ha, read-out: Percent inhibition, weed DIGSA) was 80%, the inhibition at 300 g/ha (DIGSA (large crabgrass) [3]; Digitaria sanguinalis, pre-emergence application, 300 g/ha, read-out: Percent inhibition, weed DIGSA) was 100% and the inhibition at 900 g/ha (DIGSA (large crabgrass) [3]; Digitaria sanguinalis, pre-emergence application, 900 g/ha, read-out: Percent inhibition, weed DIGSA) was 100%. The “Pre-emergence activity (GR80) DIGSA” value (DIGSA (large crabgrass) [3]) was 30 g/ha, the inhibition at 10 g/ha (DIGSA (large crabgrass) [4]; Digitaria sanguinalis, PPI application, 10 g/ha, read-out: Percent inhibition DIGSA) was 90% and the inhibition at 30 g/ha (DIGSA (large crabgrass) [4]; Digitaria sanguinalis, PPI application, 30 g/ha, read-out: Percent inhibition DIGSA) was 70%. It also gave an inhibition at 100 g/ha (DIGSA (large crabgrass) [4]; Digitaria sanguinalis, PPI application, 100 g/ha, read-out: Percent inhibition DIGSA) of 100%, an inhibition at 300 g/ha (DIGSA (large crabgrass) [4]; Digitaria sanguinalis, PPI application, 300 g/ha, read-out: Percent inhibition DIGSA) of 100% and an inhibition at 900 g/ha (DIGSA (large crabgrass) [4]; Digitaria sanguinalis, PPI application, 900 g/ha, read-out: Percent inhibition DIGSA) of 100%. The “PPI activity GR80, DIGSA” value (DIGSA (large crabgrass) [4]; pre-plant incorporated, lowest tested rate with 80% or greater inhibition, about 14 days) was 100 g/ha, the “PPI activity GR80, GALAP” value [5] was 30 g/ha and the “PPI activity GR80, LOLMG” value (LOLMG (annual ryegrass)) was 100 g/ha. The “PPI activity GR80, AEGCY” value [6] was “[empty]” and the “PPI activity GR80, AGRRE” value [7] was 300 g/ha.

CCN(CC)C(=O)n1cnc(S(=O)(=O)C(F)(F)C(F)(F)SC)n1 [Example 14] was tested, and the “Pre-emergence activity (GR80) AMARE” value (AMARE (redroot pigweed)) was 300 g/ha, the “Pre-emergence activity (GR80) POROL” value (POROL (common purslane)) was 300 g/ha and the “Pre-emergence activity (GR80) PANMI” value [1] was 100 g/ha. For the same compound, the “Pre-emergence activity (GR80) BRAPP” value [2] was 300 g/ha, the “Pre-emergence activity (GR80) DIGSA” value (DIGSA (large crabgrass) [3]) was 100 g/ha and the “Pre-emergence activity (GR80) SETVI” value (SETVI (green foxtail)) was 30 g/ha. The “Pre-emergence activity (GR80) AGSST” value [8] was 30 g/ha.
